Measurements reported in article PMC10685318, “Trans-cyclosulfamidate mannose-configured cyclitol allows isoform-dependent inhibition of GH47 α-D-mannosidases through a bump–hole strategy” (Chemical Science, 2023).

Target: T1, MAN2A2 (Homo sapiens, UniProt P49641)
T1 construct: expressed in transfected cells
T1 sequence (P49641 1-1150): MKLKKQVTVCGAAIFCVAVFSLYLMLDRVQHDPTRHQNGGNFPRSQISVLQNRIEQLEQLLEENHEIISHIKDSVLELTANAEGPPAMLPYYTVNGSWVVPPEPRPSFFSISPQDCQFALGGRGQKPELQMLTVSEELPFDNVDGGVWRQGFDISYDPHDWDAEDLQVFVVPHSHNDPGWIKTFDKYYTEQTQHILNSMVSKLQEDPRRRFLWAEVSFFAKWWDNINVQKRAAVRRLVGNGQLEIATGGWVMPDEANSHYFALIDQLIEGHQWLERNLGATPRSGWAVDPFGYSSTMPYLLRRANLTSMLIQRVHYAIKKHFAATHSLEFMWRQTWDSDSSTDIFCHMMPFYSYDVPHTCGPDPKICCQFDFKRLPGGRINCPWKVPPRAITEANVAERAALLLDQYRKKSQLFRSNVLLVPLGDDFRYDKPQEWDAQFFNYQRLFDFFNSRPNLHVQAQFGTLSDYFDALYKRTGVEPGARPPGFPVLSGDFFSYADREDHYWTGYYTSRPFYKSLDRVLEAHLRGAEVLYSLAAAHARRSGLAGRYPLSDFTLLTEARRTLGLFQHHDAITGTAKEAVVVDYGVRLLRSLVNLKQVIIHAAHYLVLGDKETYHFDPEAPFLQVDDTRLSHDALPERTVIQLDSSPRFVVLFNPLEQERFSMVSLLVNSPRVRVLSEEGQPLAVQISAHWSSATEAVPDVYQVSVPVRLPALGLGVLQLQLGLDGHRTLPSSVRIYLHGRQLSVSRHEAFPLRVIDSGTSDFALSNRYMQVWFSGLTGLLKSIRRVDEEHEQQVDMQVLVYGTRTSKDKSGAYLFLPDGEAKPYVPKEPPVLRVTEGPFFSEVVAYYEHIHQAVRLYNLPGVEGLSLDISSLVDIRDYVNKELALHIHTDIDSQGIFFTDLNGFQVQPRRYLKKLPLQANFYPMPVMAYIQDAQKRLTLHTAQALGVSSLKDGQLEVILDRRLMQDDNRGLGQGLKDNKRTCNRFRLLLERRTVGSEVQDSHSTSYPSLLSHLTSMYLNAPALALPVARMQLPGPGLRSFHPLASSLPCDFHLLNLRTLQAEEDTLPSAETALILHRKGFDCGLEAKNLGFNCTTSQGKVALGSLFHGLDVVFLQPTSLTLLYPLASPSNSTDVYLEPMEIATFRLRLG
Assay: 4-MU-α-man activity assay in overexpressed cell lysates
Format: biochemical
Source text: Finally, selectivity versus a panel of related exo-mannosidases was investigated. We first tested inhibition against all five human GH38 retaining α-mannosidases in overexpressed cell lysates using 4-methylumbelliferyl-α-mannoside (4-MU-α-man): Golgi mannosidase II and IIx (MAN2A1 and MAN2A2), cytosolic MAN2C1 and lysosomal MAN2B1 and MAN2B2. This α-mannosidase family follows a different conformational itinerary than GH47: ^0S2 → B2,5 → ^1S5.[35] […] Of note, the presence of cobalt has been associated with conformational changes in the active site of some GH38 α-mannosidases, which might affect the binding interaction with inhibitors.[36] Nevertheless, additional research is required to explore which specific metal ion is present in the MAN2C1 active site in its in vivo state.
Trans-Cyclosulfamidate Cyclitols Males et al.
2.3 GH38 α-mannosidases and GH2 β-mannosidase inhibition studies
All chemicals were of analytical grade and purchased from Sigma-Aldrich unless stated otherwise.
Optimal stability of cell homogenates and enzyme working stocks was ensured by preparation and temporary storage on ice. Cell homogenates were prepared and used on the same day. Protein concentrations were quantified using the Pierce BCA Protein Assay Kit (ThermoFisher). Protein samples were measured in clear flat-bottom polystyrene 96 well microplates (Greiner Bio-One) using a EMax Plus Microplate Reader (Molecular Devices). Activity measurements of human GH38 α-mannosidases and bacterial β-mannosidase BtMan2A were performed in black flat-bottom polystyrene 96 wells microplates (Greiner Bio-One) and total fluorescence was measured using a Perkin Elmer LS-55 fluorescence spectrometer at wavelengths λex = 366 and λem = 445 nm, with the signal optimized for medium gain readings. The fluorescence values of each enzyme sample were corrected for the background signal of a blank sample containing no enzyme. In the case of IC50 determinations, values were normalized against a control sample containing enzyme without added inhibitor. For a single experiment, three separate curves were fitted from a technical triplicate by setting the inhibitor concentration in µM against the normalized response using GraphPad Prism 8.4.2 software. The Prism functions ‘[inhibitor] versus normalized response’ and ‘[inhibitor] versus normalized response -- variable slope’ were compared for each curve using the Akaike’s Information Criterion method to select the preferred model. Reported IC50 values are mean ± standard deviation from a biological […]
General cell culture protocol
HEK293T cells were grown to confluency at 37 °C under a 5% CO2 atmosphere in Dulbecco’s Modified Eagle’s Medium (DMEM) with a high glucose concentration (Capricorn Scientific, DMEM-HPXA) that was supplemented with 10% fetal calf serum, 0.1% (w/v) penicillin/streptomycin and 1% (v/v) Glutamax. Cells were passaged twice a week to new round polystyrene (PS) tissue culture dishes (Sarstedt) by detachment off the former culture plates by careful pipetting. To prepare cell pellets for activity measurements, plates were grown to confluency and harvested in phosphate buffered saline (PBS). After centrifugation at 1500 rpm for 5 min, the remaining PBS was aspirated and the cells were resuspended in fresh PBS. The concentration of the resulting suspension was then counted using a TC20 automated cell counter (BioRad). Aliquots were centrifuged at 2000 rpm for 5 min and the resulting cell pellets were stored at -80 °C until further use.
4-MU activity assay protocol for human GH38 α-mannosidases
HEK293T cells stably overexpressing human GH38 α-mannosidases MAN2A1, MAN2A2, MAN2B1, MAN2B2 and MAN2C1 were prepared as previously described[11] and were kindly donated by Dr. C. L.
Kuo. Homogenates were prepared by sonicating cell pellets (Sonics VibraCell, 5x1 s with 30 s interval at 20% amplitude) in 150 mM McIlvain buffer of pH 5.5 (MAN2A1, MAN2A2), pH 4.5 (MAN2B1, MAN2B2) or pH 6.7 (MAN2C1) containing either 2 mM ZnCl2 (MAN2A1, MAN2A2, MAN2B1, MAN2B2) […]

O=S1(=O)N[C@@H]2[C@@H](O)[C@@H](O)[C@H](O)[C@@H](CO)[C@H]2O1 [compound 6, 1,6-trans-manno-cyclosulfamidate]
activity when the buffer was enriched with CoCl2 (CoCl2): no activity | IC50 (Zn2+): > 1000 µM
